The source of these data is a melting point compilation (Tetko et al.; mined from patent text by program, amines drawn as free bases though some values may be those of a salt).

For the molecule `CC(=O)OC1(C(C)=O)C(C)CC2C3CC(C)C4=CC(=O)C=CC4(C)C3C(O)CC21C` (centres undefined), the melting point lay in the range of 270 to 272 °C.

Consider `O=C(O)c1cccc2nnsc12`, for which the melting point fell in the range of 239 to 240 °C.

For the molecule `CCCn1c(=O)c2nc([C@@H]3CCC[C@H]3c3ccccc3)[nH]c2n(CCC)c1=O` (relative stereo), the melting point lay in the range of 152 to 153 °C.

Molecule `CC(C)c1ccc(S(=O)(=O)n2c(CCCC(=O)O)cc3nc(Cl)ccc32)cc1` had a melting point of 155 °C.

`FC(F)(F)c1ccc(-c2cc(C(F)(F)F)n3ncc(-c4cccnc4)c3n2)cc1`: the melting point is 163 °C.

Regarding `Cc1ccc(S(=O)(=O)Nc2nc(-c3cccc([N+](=O)[O-])c3)cs2)cc1`, the melting point lay in the range of 187 to 189 °C.

`N#CC(=C(Nc1cc(C(F)(F)F)cc(C(F)(F)F)c1)NC1CCC1)S(=O)(=O)c1ccc(Cl)cc1` yielded a melting point of 190 to 193 °C.

`Oc1ccc(C(F)(F)C(F)(F)C(F)(F)/C=C/C(F)(F)C(F)(F)C(F)(F)c2ccc(O)cc2)cc1` yielded a melting point of 134 to 138 °C.

`COc1cc(-c2nc(C)c(C(=O)NN)s2)cc(OC)c1OC` had a melting point of 180 to 181 °C.

For the molecule `Nc1cc(F)c(F)cc1C(=O)c1ccccc1`, the melting point is 100 to 101 °C.

In turn, `CCCn1ncc(C#N)c1N` had a melting point of 85 to 90 °C.

As to `CC(=O)N1CCCC2(Cc3cc([N+](=O)[O-])ccc3O2)C1` (centres undefined), the melting point lay in the range of 165 to 167 °C.

The molecule `CCCc1c2c(c(NCC)c3c(=O)cc(C(=O)OCC)oc13)CCCC2` gave a melting point of 91.5 °C.

In the case of `O=C(Nc1ccc(C(=O)N2CCCc3ccccc32)cc1)c1cccc(O)c1`, the melting point was 217 to 218 °C.

For `COc1nc2cc(Cl)c(Cl)c([N+](=O)[O-])c2nc1OC`, the melting point lay within 184 to 186 °C.

`C[C@@H](N1CCN(c2ccc(Cl)cc2)C1=O)[C@@]1(c2ccc(F)cc2F)CO1` displayed a melting point of 130 to 131 °C.

In turn, `O=C(O)CCCCCCc1ccc(CCNC(=O)c2ccc(Cl)cc2)cc1` yielded a melting point of 140 to 143 °C.

In turn, `CCCCNc1cc(C(=O)O)cc(S(N)(=O)=O)c1Oc1ccc(N)cc1` registered a melting point of 264 °C.

Molecule `C=CC[C@@H]1[C@H](O)[C@@H](O)C(=O)N1Cc1ccccc1` (relative stereo) yielded a melting point of 90 to 93 °C.

`CN1C(C(=O)Nc2ccc(O)c(=O)cc2)=C(O)c2ccccc2S1(=O)=O` registered a melting point of 258 to 265 °C.

Turning to `CC12CCC(=O)C=C1NCC1C2CCC2(C)C(C(=S)c3ccccn3)CCC12` (centres undefined), the melting point was in the range of 190 to 202 °C.

Molecule `Nc1ccc(CCC(=O)c2ccccc2)cc1` registered a melting point of 76 to 78 °C.

The molecule `CS(=O)c1ccc(F)c(-c2nc3ncccc3[nH]2)c1` (centres undefined) showed a melting point of 190 to 192 °C.

`NCC1CCC(CNc2ncc3ncnc(Nc4ccc(F)c(Cl)c4)c3n2)CC1` (centres undefined) registered a melting point of 155 to 160 °C.

For the molecule `CC(C)=CC(=O)N(C)c1cccc(Br)c1`, the melting point was 92 to 94 °C.

As to `CC(=O)NC[C@H]1CN(c2ccc(N3CCN(C(=O)CCC(=O)c4ccc(CN(C)C)cc4)CC3)c(F)c2)C(=O)O1`, the melting point was 190 to 192 °C.

Regarding `COC(=O)C1=C(C)Nc2ccnc(OC(C)C)c2C1c1c(Cl)cccc1Cl` (centres undefined), the melting point is 245 °C.

For the molecule `FC(F)(F)C(F)(F)C(F)(F)COc1ccnc(CSc2nc3cscc3[nH]2)c1`, the melting point is 117 °C.

In turn, `COc1ccc(CNc2nn(CC(=O)O)c(=O)c3ccc(C#N)cc23)cc1Cl` gave a melting point of 173 to 175 °C.

For the molecule `O=C1CCC(N2Cc3c(OCc4ccc5nccn5c4)cccc3C2=O)C(=O)N1` (centres undefined), the melting point fell in the range of 270 to 272 °C.

`CN1CCC(=C2c3ccccc3CCc3ccc(C#N)cc32)CC1` had a melting point of 152 to 154 °C.

The molecule `CCn1cc(C(=O)O)c(=O)c2cc(F)c(N3CCN(C(=O)OC(OC(=O)C(C)c4ccc(CC(C)C)cc4)C(=O)OC(C)C)CC3)cc21` (centres undefined) displayed a melting point of 88 to 96.5 °C.

For the molecule `CCCCCCCCCCS(=O)(=O)Nc1cc(C(=O)Nc2ccccc2)ccc1OC`, the melting point was in the range of 160 to 161 °C.

As to `Cc1ncc(C(=O)O)cn1`, the melting point fell in the range of 166 to 170 °C.

Molecule `COC(=O)c1cc(-c2c(OC)cccc2OC)n(-c2ccc(NS(=O)(=O)c3ccc(C)cc3)cc2C2CCCC2)n1` gave a melting point of 200 to 230 °C.

`COc1ccc(CC2CCC3NCC(CO)CC3C2)cc1` (centres undefined) yielded a melting point of 160 to 162 °C.

For the molecule `Cc1ccc(-c2cn(C)cc(-c3cccc(C(F)(F)F)c3)c2=O)c(C)c1`, the melting point was 128 to 131 °C.

`N#Cc1cc([N+](=O)[O-])ccc1OC1CCCCC1` registered a melting point of 97 to 98 °C.

Molecule `CCC1(COCCCCCCOc2ccc(C(=O)O)cc2)COC1` displayed a melting point of 58.5 °C.

`Cc1cc(=O)oc2nn(Cc3cccs3)c(C)c12` gave a melting point of 164 to 167 °C.

For the molecule `CC(=O)NC[C@H]1CN(c2ccc(-n3nccc3-c3cccnc3)c(F)c2)C(=O)O1`, the melting point is 83.7 to 85.9 °C.

In turn, `CCCc1cnc2c(c1)C(=O)OC2=O` yielded a melting point of 42 to 44 °C.

Turning to `C[C@H](CO)Nc1nc(SCc2cccc(F)c2F)nc2[nH]c(=O)c(NCc3ccccc3)nc12`, the melting point was in the range of 80 to 100 °C.

With `FS(F)(F)(F)(Cl)c1cccc(S(F)(F)(F)(F)Cl)c1`, the melting point fell in the range of 82 to 83.5 °C.

Turning to `Cn1c2ccccc2c2c(C(=O)O)c(C(=O)O)ccc21`, the melting point turned out to be 294 °C.

For `CCOC(=O)c1sc(Oc2ccc3c(c2)OCC3)c2c1CCc1cnn(C)c1-2`, the melting point was 137 to 138 °C.

`COc1ccc2c(c1)c(CC(=O)O)c(C)n2-c1ncnc2cc(Cl)ccc12` showed a melting point of 202 to 204 °C.

Molecule `CNC(=O)CC1CN=C(c2cc3cc(Oc4ccc(S(C)(=O)=O)nc4)c(F)c(OCCOC)c3[nH]2)S1` (centres undefined) came in with a melting point of 151 to 152 °C.

Regarding `c1ccc(SCc2cc3ccccc3[nH]2)cc1`, the melting point is 100 to 102 °C.

`CC(=O)NC(Cc1csc2ccccc12)C(CCc1cc(C(F)(F)F)cc(C(F)(F)F)c1)=NO` (centres undefined) gave a melting point of 200 to 201 °C.

Regarding `CCCc1cc(=O)c(C(=O)OC)c(C)[nH]1`, the melting point lay within 171 to 172 °C.

In turn, `c1ncn(Cc2ccc3c(c2)Cc2c(-c4ccsc4)n[nH]c2-3)n1` had a melting point of 252 to 257 °C.

For the molecule `COc1ccc(/C=C/c2c(Cl)cccc2Cl)cc1OC1CCCC1`, the melting point lay in the range of 47 to 49 °C.

Turning to `COC(=O)CCC(=O)c1ccc(C)cc1O`, the melting point fell in the range of 61 to 63 °C.

As to `Cc1ccc2c(Sc3cc(Cl)cc(Cl)c3)c(CCCC(N)=O)[nH]c2c1`, the melting point fell in the range of 163 to 164 °C.

`C1=Cc2ccc3c(c2CC1)=C1CC=c2ccccc2=C1N=3` had a melting point of 218 °C.

Consider `O=C1C2CC3CC1CC(c1cc(Br)ccc1O)(C3)C2`, for which the melting point was 287 to 289 °C.

As to `CCn1c2ccccc2c2cc(N(Cc3ccccc3)Cc3ccccc3)ccc21`, the melting point is 123 to 125 °C.

In turn, `COC(=O)N1CCC(c2ccccc2)C(O)C1` (centres undefined) came in with a melting point of 139 to 140 °C.

Molecule `N#CC(C(=O)Nc1ccccc1)C(=O)c1nn(-c2ccccc2)c2c1CSc1ccc(C(=O)NCC(=O)O)cc1-2` (centres undefined) yielded a melting point of 244 to 250 °C.

`Cc1c(-c2ccccc2Cl)sc2nc(N)[nH]c(=O)c12` displayed a melting point of 334 to 336 °C.

`O=C(Nc1ccc(Br)cc1)Oc1ccc2c(c1)CCCN2` yielded a melting point of 198 °C.

The molecule `CCOC(=O)c1cc2nc(C)n(Cc3ccccc3)c2[nH]1` registered a melting point of 193 °C.

`COC(=O)CCNc1ccccc1CNC(=O)C1Cc2ccccc2N1S(=O)(=O)c1ccc(-c2ccc(F)cc2Cl)cc1` (centres undefined) came in with a melting point of 70 to 73 °C.

As to `CCc1nc2ccc(Cl)cc2c(=O)n1CCCn1ccnc1`, the melting point lay in the range of 147 to 149 °C.

With `CC(C)(O)C(=O)CC(=O)c1ccc(C(=O)CC(=O)C(C)(C)O)cc1`, the melting point was in the range of 276 to 278 °C.

For the molecule `COC(=O)Cc1c(Cl)nc(-c2ccccc2)n1Cc1ccc(C)cc1`, the melting point is 92 to 95 °C.

The molecule `Oc1ccc2c(c1)COc1c-2cc2ccc(O)cc2c1-c1ccc(F)cc1` registered a melting point of 229 to 232 °C.

Molecule `CC(=NNC(=S)NCCN1CCOCC1)c1ccccn1` registered a melting point of 168 to 169 °C.

For the molecule `CC(C)(C)C(=O)OCOC(=O)c1c2n(c3cc4c(cc3c1=O)OCO4)CCS2`, the melting point was in the range of 229 to 230 °C.

Consider `COc1ccc([N+](=O)[O-])c(NCCO)n1`, for which the melting point was in the range of 121 to 122 °C.

Turning to `Cc1c(C(=O)CBr)ncn1C`, the melting point is 276 to 277 °C.

The molecule `COc1cc2c(cc1Nc1ncc(Cl)c(Nc3ccccc3S(C)(=O)=O)n1)CCN(CC(N)=O)CC2` came in with a melting point of 111 to 123 °C.

Molecule `CS(=O)CCNC(=O)c1cc2cc(S(N)(=O)=O)sc2s1` (centres undefined) had a melting point of 242 to 243 °C.

Regarding `COc1ccc(-c2noc(C)c2-c2ccc(OC)cc2)cc1`, the melting point lay in the range of 95 to 99 °C.

On to `CCOC(=O)C1=C(C)NC(C)=C(C(=O)OCC)C1c1ccccc1/C=C(\C)C(=O)OCC`, for which the melting point was 105 to 106 °C.

For the molecule `Cc1cc(SCc2ccc(-c3ccc(C(F)(F)F)cn3)cc2)c2c(c1OCC(=O)O)CCO2`, the melting point is 94 to 95 °C.

In turn, `Cc1c(C(F)(F)F)cnn(-c2ccc(Cl)c(C=C(Cl)C(=O)O)c2)c1=O` yielded a melting point of 168 °C.

`O=C(CCn1cnc2c(=O)[nH]cnc21)Nc1ccc(C(=O)O)cc1` yielded a melting point of 319 to 321 °C.

In turn, `Cc1nc2c3c(ccc2n1C)[C@@H](O)[C@H](O)[C@@H](c1ccccc1)O3` returned a melting point of 262 °C.

Turning to `CC(C)Nc1cccnc1N1CCN(C(=O)c2ccc(C(=O)N[C@H](CO)C(C)C)cc2)CC1`, the melting point lay in the range of 82 to 83 °C.

For the molecule `O=C(NCCSCc1ccccc1)c1ccccc1`, the melting point was in the range of 65 to 67 °C.

Consider `CCC(C)C(S)C(=O)NC1(C(=O)NC(Cc2ccc(-c3ccco3)nc2)C(=O)O)CCCC1` (centres undefined), for which the melting point fell in the range of 175 to 180 °C.

For `CC1(C)NC(=S)C1(C)C`, the melting point lay in the range of 117 to 118 °C.

In the case of `Cc1cc(C)n(-c2nccc(Nc3ccc(Cl)cc3)n2)n1`, the melting point fell in the range of 136 to 140 °C.

Regarding `COC(=O)Cc1cc(O)n(C)n1`, the melting point was 148 °C.

`COC(=O)CC1COc2cc(OCc3csc(-c4ccccc4)n3)ccc21` (centres undefined) had a melting point of 116 to 117 °C.

`O=C(O)COc1ccc(-c2nc3ncccc3[nH]2)c(O)c1`: the melting point is 235 °C.

Take `CCCCCC/C=C/CCCCCCCCCC(=O)Nc1nc(CC(=O)O)cs1`: the melting point was 116 to 117 °C.
